Reference: US9090617B1, “Agonists of Src homology-2 containing protein tyrosine phosphatase-1 and treatment methods using the same” (National Taiwan University, priority 2011, dated 2015)
“Also recorded” adds a separate entry of the source. Read-outs that look alike come from different tables or passages of the source.

Key:
[1] = test system: PLC5/luc2 orthotopic tumors; test: HCC orthotopic model with PLC5/luc2 cells; format: in vivo, mice; details: 10 mg/kg/day orally
Experimental: All experimental procedures using these mice were done in accordance with protocols approved by the Institutional Laboratory Animal Care and Use Committee of National Taiwan University. Each mouse was inoculated within liver […] with 1×10^4 PLC5/luc cells suspended in 0.1 mL of serum-free medium containing 50% Matrigel (BD Biosciences). […] Tumor growth was monitored by non-invasive in vivo imaging system (IVIS) image system twice weekly.
(§1) We established an HCC orthotopic model using luc2-expressed PLC5 cells inoculated into liver of nude mice. […] To further correlate the molecular mechanism with the anticancer effect in vivo, p-STAT3 and SHP-1 activity in tumor extract from vehicle- and SC-treated mice was analyzed by immunoblotting. […] The pharmacokinetics of SC-43 was determined (FIG. 25E).

[2] = test system: p-STAT3, cyclin D1, survivin, Mc1-1; test: Western blot of STAT3-related proteins in HCC cells; format: cell-based; details: HCC cells, 24 h
Experimental: Cells were treated with various compounds at 5 and 10 μM for 24 h. Cell lysates were analyzed by western blot.
HCC cells treated with SC-43 (10 μM for 24 h) were collected with RIPA lysis buffer. Antibodies for immunoblotting such as cyclin D1 was purchased from Santa Cruz Biotechnology. Other antibodies such as survivin, phospho-STAT3 (Tyr705), STAT3, Mc1-1, SOCS1, and SOCS3 were from Cell Signaling.

[3] = test system: phospho-STAT3 (Tyr705); test: Phospho-STAT3 (Tyr705) sandwich ELISA; format: cell-based; details: for p-STAT3 / STAT3 activity (phospho-STAT3 ELISA and luciferase reporter): PLC5 cells
Experimental: A PathScan Phospho-Stat3 (Tyr705) Sandwich ELISA Kit was used for the detection of phospho-STAT3 (Cell Signaling, Danvers, Mass.). Cells were pre-treated with IL-6 1 ng/ml and then exposed with various compounds at 10 μM for 24 h. After incubation with cell lysates, both non-phospho- and phospho-Stat3 proteins are captured by the coated antibody. The expression of phospho-STAT3 was measured at 450 nm absorbance.
The decreased level of P-STAT3 induced by these derivatives was correlated with cell toxicity. In the other words, these derivatives induced cell death in part through inhibition of STAT3.
We also assayed the activation status of p-STAT3 by STAT3 ELISA. […] SC-1 or sorafenib-treated cell extracts were incubated with antibody against phosphorylated STAT3 at Y705. […] To evaluate the transcriptional activity, STAT3-binding region was cloned into Luc reporter. […] The firefly luciferase activity was evaluated and normalized by Renilla luciferase.
p-STAT3 activity: PLC5 cells treated with SC derivatives were collected in RIPA buffer and analyzed in p-STAT3 ELISA kit. The assay protocol follows the manufacturer.

[4] = test system: PLC5 tumors; test: Subcutaneous PLC5 xenograft; format: in vivo, mice; details: for average tumor size versus control mice at the end of treatment: SC PLC5 tumor-bearing mice
Experimental: All experimental procedures using these mice were done in accordance with protocols approved by the Institutional Laboratory Animal Care and Use Committee of National Taiwan University. Each mouse was inoculated s.c. in the dorsal flank with 1×10^6 PLC5 cells suspended in 0.1 mL of serum-free medium containing 50% Matrigel (BD Biosciences). When tumors reached 100 to 200 mm3, mice received SC-40 tosylate (10 or 20 mg/kg) orally once daily. Tumors were measured weekly using calipers, and their volumes were calculated using the following standard formula: width×length×height×0.52.
as §1

[5] = molecular target: T1, SHP-1 (Homo sapiens, UniProt P29350); test: Phosphatase activity of recombinant SHP-1; format: biochemical; details: 25 ng protein, 30 minutes
Experimental: RediPlate 96 EnzChek Tyrosine Phosphatase Assay kit (R-22067) was used for SHP-1 activity assay (Molecular Probes). Recombinant SHP-1 protein (25 ng) was incubated with either SC-43 or SC-40 at the indicated dose for 30 minutes and then analyzed by SHP-1 phosphatase activity.

[6] = test system: HCC cells; test: cells; details: 72 h
Description: Points, mean; bars, SD (n=6).
Points, mean; bars, SD ([…]). […] The N-SH2 domain is in orange, the C-SH2 domain is in marine, the PTP domain is in hot pink, and the linkers between them are in gray. […] ELISA, enzyme-linked immunosorbent assay.

[7] = molecular target: T1, SHP-1; test: Phosphatase activity of SHP-1 immunoprecipitated from PLC5 cells, incubated with compound in vitro; format: biochemical; set-up: PLC5 protein extract was incubated with anti-SHP-1 antibody in immunoprecipitation buffer overnight; endogenous in cells; host or cells: PLC5 (PLC/PRF/5)
Experimental: PLC5 protein extract was incubated with anti-SHP-1 antibody in immunoprecipitation buffer overnight. Protein G Sepharose 4 Fast flow (GE Healthcare Bio-Science) was added to each sample, followed by incubation for 3 hours at 4° C. with rotation. […] RediPlate 96 EnzChek Tyrosine Phosphatase Assay kit (R-22067) was used for SHP-1 activity assay (Molecular Probes).

[8] = test system: HCC cells; test: Apoptosis analysis by flow cytometry (sub-G1); format: cell-based; details: for apoptosis (sub-G1): HCC cells, 24 h
Experimental: Apoptotic cells were measured by flow cytometry (sub-G1). After treatment with various compounds, cells were trypsinized, collected by centrifugation and resuspended in PBS. After centrifugation, the cells were washed in PBS and resuspended in […] (PI) staining solution. Specimens were incubated in the dark for 30 min at 37° C. and then analyzed with an EPICS Profile II flow cytometer (Coulter Corp., Hialeah, Fla.). All experiments were performed in triplicate
Collected cells were fixed in 75% Ethanol and stained with 20 ug/ml Propidium Iodide (PI). Sub-G1 analysis was performed by flow-cytometry. […] Points, mean; bars, SD (n=6).

[9] = molecular target: T2, JAK2 (Homo sapiens, UniProt O60674); test: JAK2 kinase activity; format: cell-based; details: PLC5 cells, 10 μM, 24 h
T2 construct: endogenous in cells; host or cells: PLC5
Description: (§2) The RediPlate 96 EnzChek® Tyrosine Phosphatase Assay Kit (R-22067) was used for SHP-1 activity assay (Molecular Probes, Carlsbad, Calif.). The Raf-1 kinase cascade assay kit (Upstate-Millipore, Billerica, Mass.) was used to examine the Raf-1 kinase activity. The JAK2 kinase activity kit was purchased from Reaction Biology Corp. (Malvern, Pa.).

[10] = test system: PLC5 cells; test: MTT assay for cell growth inhibition in PLC5 cells; format: cell-based
Experimental: These compounds were analyzed by MTT assay for cell growth inhibition in the PLC5 cells.
Next, we changed the pyridine to a quinoline ring and amide linker to generate compounds 12-25. These compounds were also analyzed by MTT assay for cell growth inhibition in the PLC5 cells.

[11] = test system: Huh-7 tumors; details: for SHP-1 activity in Huh-7 tumors: tumor extract
Experimental: Male NCr athymic nude mice (5-7 weeks of age) were obtained from the National Laboratory Animal Center (Taipei, Taiwan). All experimental procedures using these mice were performed in accordance with protocols approved by National Taiwan University. […] Controls received vehicle (Chen K F et al. Cancer Res. 2008; 68:6698-6707).

[12] = molecular target: T3, Raf-1 (Homo sapiens, UniProt P04049); test: Raf-1 kinase activity in lysates of treated cells; format: cell-based
T3 construct: Raf-1 immunoprecipitated from PLC5 cell extracts was incubated with MEK recombinant protein; endogenous in cells; host or cells: PLC5
Description: as §2

[13] = molecular target: T4, VEGFR1 (Homo sapiens, UniProt P17948); test: VEGFR1 activity in HUVEC cells; format: cell-based; details: 24 h
T4 construct: we tested the effect of SC-49 on the activity of VEGFR1 in HUVEC cells; endogenous in cells; host or cells: HUVEC
Description: To further investigate the effect of SC-49 on angiogenesis, we tested the effect of SC-49 on the activity of VEGFR1 in HUVEC cells.

[14] = test system: Huh-7 xenograft tumor; test: Huh-7 xenograft with SC-59 or sorafenib and radiation; format: in vivo, mice; details: 10 mg/kg p.o. once daily plus 5 Gy radiation for 4 days
Experimental: (A) The effects of SC-59 and radiation on tumor growth. Each mouse was inoculated subcutaneously in the right leg with […] Huh-7 cells suspended in Matrigel. When the tumor reached a volume of 400-600 mm3, mice received vehicle, 5 Gy radiation (one fraction per day) for 4 days, or 10 mg/kg SC-59 p.o. once daily, or a combination for the duration of the study. The data points indicate the mean values (n=6) and the bars indicate the standard error. There were significant differences between the combined treatment group and the vehicle control group (*, P<0.05, **, P<0.01). (B) Left, the expression of P-STAT3 in the Huh-7 tumors was analyzed by western blot. Right, quantified data for p-STAT3 to STAT3. (C) The activity of SHP-1 in Huh-7 tumors. Values are means±SD, *, P<0.05. (D) Body weight of mice after SC-59 and RT treatment. […] The data points indicate the mean values (n=6) and the bars indicate the standard error. […] (H) Body weight of mice treated with vehicle, RT, sorafenib, and combination.
To further elucidate the molecular events responsible for this synergistic effect, we examined the expression level of p-STAT3 in the tumor extract.

[15] = test system: STAT3; test: STAT3 luciferase reporter assay; format: cell-based; details: 10 μM, 24 h
Experimental: Cells were seeded in 96-well plate and pre-treated with IL-6 at the dose […] for 30 min. The STAT3 reporter kit was purchased from SABiosciences (Frederick, Md.).
STAT3 reporter assay: PLC5 cells were seeded in a 96-well plate. Cells were pretransfected with STAT3 reporter construct for 24 h and treated with derivatives for another 24 h. The STAT3 Reporter Kit was purchased from SABiosciences.

T1 sequence (P29350 whole entry): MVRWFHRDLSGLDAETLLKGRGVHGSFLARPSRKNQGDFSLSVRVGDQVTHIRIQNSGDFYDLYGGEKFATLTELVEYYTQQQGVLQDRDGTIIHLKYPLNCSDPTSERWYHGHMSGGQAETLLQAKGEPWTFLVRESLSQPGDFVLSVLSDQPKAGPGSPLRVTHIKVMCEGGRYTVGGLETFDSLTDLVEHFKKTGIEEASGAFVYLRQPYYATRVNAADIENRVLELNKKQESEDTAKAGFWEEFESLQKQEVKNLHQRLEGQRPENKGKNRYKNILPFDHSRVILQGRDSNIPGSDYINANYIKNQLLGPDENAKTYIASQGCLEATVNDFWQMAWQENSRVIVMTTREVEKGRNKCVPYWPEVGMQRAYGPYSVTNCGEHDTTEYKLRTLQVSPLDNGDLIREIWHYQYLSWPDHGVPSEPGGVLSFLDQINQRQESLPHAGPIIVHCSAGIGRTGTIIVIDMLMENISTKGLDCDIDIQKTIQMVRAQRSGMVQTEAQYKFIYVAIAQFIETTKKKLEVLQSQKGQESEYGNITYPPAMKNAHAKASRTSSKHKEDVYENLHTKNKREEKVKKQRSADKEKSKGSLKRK
T3 sequence (P04049 whole entry): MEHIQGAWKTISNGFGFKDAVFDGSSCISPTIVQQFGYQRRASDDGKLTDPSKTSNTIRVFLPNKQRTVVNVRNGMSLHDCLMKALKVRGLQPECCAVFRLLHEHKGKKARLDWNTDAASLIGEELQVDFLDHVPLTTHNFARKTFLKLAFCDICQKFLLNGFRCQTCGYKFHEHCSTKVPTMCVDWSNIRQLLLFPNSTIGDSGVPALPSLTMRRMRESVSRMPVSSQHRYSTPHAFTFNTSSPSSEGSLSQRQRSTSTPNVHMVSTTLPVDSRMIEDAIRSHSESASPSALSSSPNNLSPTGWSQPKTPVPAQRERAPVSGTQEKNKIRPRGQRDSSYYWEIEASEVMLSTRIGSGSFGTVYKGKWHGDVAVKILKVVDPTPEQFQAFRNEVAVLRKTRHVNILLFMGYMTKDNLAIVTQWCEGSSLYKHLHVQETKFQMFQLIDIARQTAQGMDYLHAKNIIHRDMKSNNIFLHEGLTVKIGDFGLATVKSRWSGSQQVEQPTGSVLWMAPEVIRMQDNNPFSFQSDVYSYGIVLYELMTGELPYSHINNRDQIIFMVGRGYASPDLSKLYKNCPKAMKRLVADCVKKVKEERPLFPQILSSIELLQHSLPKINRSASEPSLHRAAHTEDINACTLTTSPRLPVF
T4 sequence (P17948 27-1338): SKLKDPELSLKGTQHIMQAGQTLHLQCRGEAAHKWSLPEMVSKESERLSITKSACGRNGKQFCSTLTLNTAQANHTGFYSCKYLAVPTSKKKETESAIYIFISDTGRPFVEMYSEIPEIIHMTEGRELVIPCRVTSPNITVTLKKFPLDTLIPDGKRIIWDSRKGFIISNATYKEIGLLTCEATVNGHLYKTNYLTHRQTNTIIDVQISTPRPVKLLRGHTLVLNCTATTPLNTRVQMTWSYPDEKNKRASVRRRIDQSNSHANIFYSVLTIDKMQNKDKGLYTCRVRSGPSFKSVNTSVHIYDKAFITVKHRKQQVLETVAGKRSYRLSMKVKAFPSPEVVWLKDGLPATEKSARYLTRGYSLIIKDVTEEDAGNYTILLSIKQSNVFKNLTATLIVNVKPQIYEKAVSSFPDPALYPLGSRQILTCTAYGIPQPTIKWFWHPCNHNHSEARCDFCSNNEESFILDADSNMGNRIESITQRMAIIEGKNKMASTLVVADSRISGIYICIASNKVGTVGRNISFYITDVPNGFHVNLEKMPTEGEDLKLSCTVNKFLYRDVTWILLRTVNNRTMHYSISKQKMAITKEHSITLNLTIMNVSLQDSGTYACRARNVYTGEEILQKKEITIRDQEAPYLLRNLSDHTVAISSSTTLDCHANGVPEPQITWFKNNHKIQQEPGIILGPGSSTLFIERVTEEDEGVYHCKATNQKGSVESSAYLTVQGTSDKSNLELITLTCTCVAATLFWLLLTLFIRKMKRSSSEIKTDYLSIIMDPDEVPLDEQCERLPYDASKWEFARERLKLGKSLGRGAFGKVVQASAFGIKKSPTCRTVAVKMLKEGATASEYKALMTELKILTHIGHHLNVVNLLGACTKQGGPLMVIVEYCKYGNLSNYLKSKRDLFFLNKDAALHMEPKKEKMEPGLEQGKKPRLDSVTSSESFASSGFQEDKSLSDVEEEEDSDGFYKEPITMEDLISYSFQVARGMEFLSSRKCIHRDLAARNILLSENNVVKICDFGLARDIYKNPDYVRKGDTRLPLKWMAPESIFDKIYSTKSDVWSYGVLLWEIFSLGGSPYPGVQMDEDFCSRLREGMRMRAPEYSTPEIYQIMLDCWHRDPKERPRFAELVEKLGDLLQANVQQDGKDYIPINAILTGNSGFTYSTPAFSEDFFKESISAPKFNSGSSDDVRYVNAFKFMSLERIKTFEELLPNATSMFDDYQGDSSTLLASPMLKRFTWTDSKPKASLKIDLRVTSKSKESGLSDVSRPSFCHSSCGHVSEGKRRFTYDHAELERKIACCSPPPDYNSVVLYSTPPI
T2 sequence (O60674 whole entry): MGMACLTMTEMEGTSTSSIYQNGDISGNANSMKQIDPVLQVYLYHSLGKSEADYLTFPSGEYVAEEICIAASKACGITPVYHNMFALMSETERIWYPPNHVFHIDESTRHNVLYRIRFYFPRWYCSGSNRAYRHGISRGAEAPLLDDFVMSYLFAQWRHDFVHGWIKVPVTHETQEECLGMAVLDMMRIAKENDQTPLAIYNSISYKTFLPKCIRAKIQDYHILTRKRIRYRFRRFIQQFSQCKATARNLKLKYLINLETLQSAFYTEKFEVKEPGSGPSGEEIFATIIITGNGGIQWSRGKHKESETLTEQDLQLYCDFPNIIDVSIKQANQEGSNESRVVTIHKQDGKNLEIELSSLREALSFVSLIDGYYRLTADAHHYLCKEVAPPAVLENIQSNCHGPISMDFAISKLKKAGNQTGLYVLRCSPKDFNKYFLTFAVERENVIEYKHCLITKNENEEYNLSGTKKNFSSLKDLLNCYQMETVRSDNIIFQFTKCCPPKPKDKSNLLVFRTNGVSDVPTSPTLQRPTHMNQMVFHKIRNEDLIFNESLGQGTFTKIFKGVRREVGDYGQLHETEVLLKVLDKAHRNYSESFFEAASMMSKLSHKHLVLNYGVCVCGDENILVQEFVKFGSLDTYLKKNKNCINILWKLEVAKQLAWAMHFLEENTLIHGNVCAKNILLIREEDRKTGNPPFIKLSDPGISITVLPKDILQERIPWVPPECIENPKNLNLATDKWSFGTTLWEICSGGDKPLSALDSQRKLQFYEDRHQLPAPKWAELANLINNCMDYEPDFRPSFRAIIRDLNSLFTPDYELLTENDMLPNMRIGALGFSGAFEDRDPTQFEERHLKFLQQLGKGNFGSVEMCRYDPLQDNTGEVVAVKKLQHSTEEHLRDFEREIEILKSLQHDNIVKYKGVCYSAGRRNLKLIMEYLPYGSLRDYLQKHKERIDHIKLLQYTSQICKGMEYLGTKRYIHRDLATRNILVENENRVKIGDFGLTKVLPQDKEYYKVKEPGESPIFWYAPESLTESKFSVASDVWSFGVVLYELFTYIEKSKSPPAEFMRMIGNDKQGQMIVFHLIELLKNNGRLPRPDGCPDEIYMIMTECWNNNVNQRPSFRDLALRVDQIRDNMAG

Structure (SMILES): Cc1ccc(NC(=O)Nc2ccc(C)c(Oc3ccc(C#N)cc3)c2)cc1Oc1ccc(C#N)cc1 [SC-60, 1,3-bis(3-(4-cyanophenoxy)-4-methylphenyl)urea]
- anti-HCC effect and survival in orthotopic model [1]: displayed significant survival benefits compared with mice treated with vehicle or sorafenib
- p-STAT3 and STAT3-related proteins (Western blot) [2]: downregulated phospho-STAT3 (p-STAT3) at tyrosine 705 in a dose-dependent manner
- p-STAT3 / STAT3 activity (phospho-STAT3 ELISA and luciferase reporter) [3]: showed significant inhibition of STAT3 activity
- average tumor size versus control mice at the end of treatment ([4]; 10 mg/kg/day orally): less than half of those of control mice

Structure (SMILES): Nc1cc(Oc2cccc(NS(=O)(=O)c3cccc(C(F)(F)F)c3)c2)ccc1[N+](=O)[O-] [SC-40, N-(3-(trifluoromethyl)benzene-sulfonyl)-3-(3-amino-4-nitrophenoxy)benzenamine]
- phosphatase activity of recombinant SHP-1 [5]: increase phosphatase activity of SHP-1 in vitro
- viability of HCC cells / cytotoxicity [6]: showed lower 50% inhibitory concentration, compared to sorafenib
- p-STAT3 and STAT3-related proteins (Western blot) [2]: down-regulates phospho-STAT3-related signaling pathway in HCC
- phosphatase activity of SHP-1 in vitro ([7]; SHP-1-containing PLC5 extract, 10 or 100 nmol/L, 30 min, 4° C.): increase phosphatase activity of SHP-1 in vitro
- p-STAT3 / STAT3 activity (phospho-STAT3 ELISA and luciferase reporter) [3]: induce strong inhibition of p-STAT3 activity; also recorded: showed more potent inhibition of the p-STAT3-related signaling pathway
- apoptosis (sub-G1) [8]: show significant anti-cancer effects in HCC cells
- apoptosis in sorafenib-resistant cells ([8]; sorafenib-resistant HCC cells (SR1)): resulted in significant apoptosis in sorafenib-resistant cells at submicromolar concentrations
- p-STAT3 and SHP-1 activity in PLC5 tumor lysate ([4]; 10 mg/kg/day orally): Down-regulation of p-STAT3 and elevation of SHP-1 activity
- body weight of the animals ([4]; PLC5 xenograft, 10 or 20 mg/kg orally once daily): do not affect body weight of the animals
- average tumor size versus control mice at the end of treatment ([4]; 10 mg/kg/day orally): less than half that of control mice
- antitumor effect on PLC5 tumors ([4]; SC-40 tosylate 10 or 20 mg/kg orally once daily): has significant anti-tumor effect on PLC5 tumors

Structure (SMILES): CNC(=O)c1cc(Oc2ccc(NC(=O)Nc3ccc(Cl)c(C(F)(F)F)c3)cc2)ccn1 [Sorafenib, reference compound]
- kinase activity of JAK2 [9]: neither sorafenib nor SC-1 altered the kinase activity of JAK2
- viability of HCC cells / cytotoxicity ([6]; HCC cell lines, MTT): decreased the viability of various HCC cells
- IC50 [10]: 8.3 µM
- Huh-7 tumor size / growth versus control ([11]; 10 mg/kg/day orally): less than half that of control mice
- body weight or toxicity ([11]; mouse, in vivo, po, 10 mg/kg/day): no apparent differences in body weight or toxicity
- SHP-1 activity in Huh-7 tumors [11]: showed significant induction of SHP-1 activity in vivo
- SHP-1 activity in Huh-7 tumors ([11]; listed as sorafenib): enhanced the activity of SHP-1 in Huh-7 tumours
- inhibition at 5 µM ([12]; PLC5, read-out: inhibition of Raf-1 kinase activity of the untreated cells): 50%
- reduction in Raf-1 kinase activity ([12]; Raf-1 immunoprecipitated from PLC5 or Hep3B cell extracts, 10 μM, 24 h): 20-40%
- p-STAT3 and STAT3-related proteins (Western blot) [2]: down-regulated p-STAT3 at Y705 residue and suppressed Mc1-1 and cyclin D1
- activity of VEGFR1 [13]: significantly inhibited the activity of VEGFR1 in HUVEC cells
- tumor growth with radiotherapy combination [14]: did not display a better synergistic effect when used in combination with radiotherapy
- activity of SHP-1 in SHP-1 immunoprecipitates incubated with drug ([7]; PLC5 lysates, incubated 6 hours): increase the activity of SHP-1
- activity of p-STAT3 by STAT3 ELISA ([3]; Sk-Hep1 cells pre-treated with IL-6, 24 h): decreased the activity of p-STAT3 significantly
- apoptosis (sub-G1) [8]: showed a significant increase in sub-G1 phase population
- transcription activity of STAT3 (Luc reporter) [15]: transcription activity of STAT3 was significantly decreased
